Measurements as given in patent US6355630B1, “Estra-1,3,5(10)-triene-7α-thioethers” (priority 1997, dated 2002).
pIC50: −log10 of the molar value. Structures can show the parent of a compound that is named as a salt.

Legend:
rat uterus = assay: Rat uterotrophic/antiuterotrophic test procedure; format: in vivo; conditions: daily ip, 4-day immature rat
Description: Rat Uterotrophic/Antiuterotrophic Test Procedure
The estrogenic and antiestrogenic properties of the compounds were determined in a 4-day immature rat uterotrophic assay (as described previously by L. J. Black and R. L. Goode, Life Sciences, 26, 1453 (1980)). Immature Sprague-Dawley rats (female, 18 days old) were tested in groups of six. […] On day 4 the animals were sacrificed by CO2 asphyxiation and their uteri were removed and stripped of excess lipid, any fluid removed and the wet weight determined. A small section of one horn was submitted for histology and the remainder used to isolate total RNA in order to evaluate complement component 3 gene expression.
Representative compounds of this invention were evaluated in the rat uterotrophic/antiuterotrophic assay to determine their in vivo effects on the rat uterus.

human estrogen receptor = target: T1, human estrogen receptor (Homo sapiens, UniProt P03372); assay: In vitro estrogen receptor binding test procedure ([3H]-17β-estradiol competition); conditions: read-out: Receptor IC50
T1 construct: expressed in transfected cells; host or cells: Chinese Hamster ovary (CHO) cells; ribosome-free cytosol
T1 sequence (P03372 1-595): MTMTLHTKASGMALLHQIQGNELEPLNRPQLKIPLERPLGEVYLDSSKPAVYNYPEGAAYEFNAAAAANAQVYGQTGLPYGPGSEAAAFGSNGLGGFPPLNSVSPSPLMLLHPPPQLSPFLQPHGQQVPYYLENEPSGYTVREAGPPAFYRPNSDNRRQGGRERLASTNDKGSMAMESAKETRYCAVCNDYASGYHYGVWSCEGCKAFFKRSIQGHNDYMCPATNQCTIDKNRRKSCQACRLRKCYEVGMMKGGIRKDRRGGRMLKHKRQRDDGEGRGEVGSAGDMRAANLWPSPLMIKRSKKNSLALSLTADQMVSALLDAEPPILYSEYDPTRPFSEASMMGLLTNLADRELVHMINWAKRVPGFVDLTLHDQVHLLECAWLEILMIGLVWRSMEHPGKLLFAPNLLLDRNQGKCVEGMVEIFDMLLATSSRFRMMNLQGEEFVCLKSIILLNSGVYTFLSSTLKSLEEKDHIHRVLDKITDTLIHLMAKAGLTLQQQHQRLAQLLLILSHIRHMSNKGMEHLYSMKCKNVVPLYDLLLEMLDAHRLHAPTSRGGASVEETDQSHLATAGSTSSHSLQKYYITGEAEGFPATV
Description: In vitro Estrogen Receptor Binding Test Procedure
Chinese Hamster ovary (CHO) cells overexpressing the estrogen receptor were grown in […] dishes in DMEM+10% dextran coated charcoal, stripped fetal bovine serum. The plates were washed twice with PBS and once with 10 mM Tris-HCl, pH 7.4, 1 mM EDTA. Cells were harvested by scraping the surface and then the cell suspension was placed on ice. Cells were disrupted with a hand-held motorized tissue grinder using two, 10-second bursts. The crude preparation was centrifuged at 12,000 g for 20 minutes followed by a 60 minute spin at 100,000 G to produce a ribosome free cytosol. The cytosol was then frozen and stored at −80° C. Protein concentration of the cytosol was estimated using the BCA assay with reference standard protein.
Binding Test Procedure Conditions
100 uG/100 uL of the receptor preparation was aliquoted per well. […] The plate was incubated at room temperature for 2.5 h. At the end of this incubation period 150 uL of ice-cold dextran coated charcoal (5% activated charcoal coated with 0.05% 69K dextran) was added to each well and the plate was immediately centrifuged at 99 g for 5 minutes at 4° C. 200 uL of the supernatant solution was then removed for scintillation counting. Samples were counted to 2% or 10 minutes, whichever occurs first. […] Also, wells containing radioactivity but no cytosol were processed with charcoal to estimate unremovable DPM of [^3H] […] 96-well plates were used because they have proven to bind the least amount of estradiol.
Counts per minute (CPM) of radioactivity were automatically converted to disintegrated per minute (DPM) by the Beckman LS 7500 Scintillation Counter using a set of quenched standards to generate a H# for each sample. To calculate the % of estradiol binding in the presence of 100 or 500 fold competitor the following formula was applied:
((DPM sample−DPM not removed by charcoal/(DPM estradiol−DPM not removed by charcoal))×100%=% of estradiol binding
For the generation of IC50 curves, % binding is plotted vs compound. […] Values are reported as IC50 values. […] For a description of these methods, see Hulme, E. C., ed. 1992. Receptor-Ligand Interactions: A Practical Approach. IRL Press, New York.(see especially chapter 8).
Compounds were tested for their ability to displace estradiol in a human ER-receptor preparation as described above.

Ishikawa uterine cells = assay: Ishikawa cell alkaline phosphatase test procedure; format: cell-based, human; conditions: for Alkaline phosphatase activity, percent of response related to 1 nM 17β-estradiol: 48 h
Description: Ishikawa Cell Alkaline Phosphatase Test Procedure
Cell Maintenance and Treatment
Ishikawa cells were maintained in DMEM/F12 (50%:50%) containing phenol red+10% fetal bovine serum and the medium was supplemented with 2 mM Glutamax, 1% Pen/Strap and 1 mM sodium pyruvate. Five days prior to the beginning of each evaluation (treatment of cells) the medium was changed to phenol red-free DMEM/F12+10% dextran coated charcoal stripped serum. On the day before treatment, cells were harvested using 0.5% trypsin/EDTA and plated at a density of 5×10^4 cells/well in 96-well tissue culture plates. […] Cells were treated for 48 h prior to assay. […] Sample population for at each dose was n=8.
Alkaline Phosphatase Test Procedure
At the end of 48 h the media was aspirated and cells were washed three times with phosphate buffered saline (PBS); 50 μL of lysis buffer (0.1 M Tris-HCl, pH 9.8, 0.2% Triton X-100) was added to each well. Plates were placed at −80° C. for a minimum of 15 minutes. Plates were thawed at 37° C. followed by the addition of 150 μL of 0.1 M Tris-HCl, pH 9.8, containing 4 mM para-nitrophenylphosphate (pNPP) to each well (final concentration, 3 mM pNPP).
Absorbance and slope calculations were made using the KineticCalc Application program (Bio-Tek Instruments, Inc., Winooski, Vt.). Results are expressed as the mean +/−S.D. of the rate of enzyme reaction (slope) averaged over the linear portion of the kinetic reaction curve (optical density readings every 5 minutes for 30 minutes absorbance reading).
The four compounds were used as reference standards:
A description of these methods is described by Holinka, C. F., Hata, H., Kuramoto, H. and Gurpide, E. (1986) Effects of steroid hormones and antisteroids on alkaline phosphatase activity in human endometrial cancer cells (Ishikawa Line). Cancer Research, 46:2771-2774, and by Littlefield, B. A., Gurpide, E., Markiewicz, L., McKinley, B. and Hochberg, R. B. (1990) A simple and sensitive microtiter plate estrogen bioassay based on stimulation alkaline phosphatase in Ishikawa cells; Estrogen action of D5 adrenal steroids. Endocrinology, 6:2757-2762.

[1] = 1 uM compound + 1 nM E2, antagonist mode

`CC12CCC3c4ccc(O)cc4CC(Sc4ccc(-c5ccc(C=CC(=O)O)cc5)cc4)C3C1CCC2O` (stereo not drawn) [Example 13, (7α,17β) 7-{4-[4′-(2-Carboxy)-ethenyl]biphenyl}thio-estra-1,3,5(10)-triene-3,17-diol sodium salt] was tested, and the Uterine wet weight (rat uterus; 1 ug Cpd) was 48.0 mg, the Uterine wet weight (rat uterus; 100 ug Cpd) was 55.8 mg and the pIC50 (human estrogen receptor) was 6.40. For the same compound, the “Alkaline phosphatase activity, percent of response related to 1 nM 17β-estradiol” value (“Alkaline phosphatase activity, percent” for short) (Ishikawa uterine cells; 0.01 uM compound, agonist mode) was 11%, the “Alkaline phosphatase activity, percent” value (Ishikawa uterine cells; 0.1 uM compound, agonist mode) was 72% and the “Alkaline phosphatase activity, percent” value (Ishikawa uterine cells; [1]) was 101%. The “Alkaline phosphatase activity, percent” value (Ishikawa uterine cells; 1 uM compound, agonist mode) was 95%.
In the case of `CCCCN(C)C(=O)CCCCCCCCCCS[C@H]1[C@@H]2[C@H](CC[C@]3(C)[C@@H](O)CC[C@@H]23)c2ccc(O)cc2[C@H]1O` [Example 17, (6α,7α,17β) 7-[10-(N-Butyl-N-methyl-carbamoyl)-decyl]thio-estra-1,3,5(10)-triene-3,6,17-triol], the Uterine wet weight (rat uterus; 1 ug Cpd) was 36.5 mg, the Uterine wet weight (rat uterus; 100 ug Cpd) was 64.2 mg and the pIC50 (human estrogen receptor) was 6.40. For the same compound, the “Alkaline phosphatase activity, percent” value (Ishikawa uterine cells; 0.01 uM compound, agonist mode) was 0%, the “Alkaline phosphatase activity, percent” value (Ishikawa uterine cells; 0.1 uM compound, agonist mode) was 0% and the “Alkaline phosphatase activity, percent” value (Ishikawa uterine cells; [1]) was 28%. For the same compound, the “Alkaline phosphatase activity, percent” value (Ishikawa uterine cells; 1 uM compound, agonist mode) was 1% and the “Behaviour in the uterine cell line (agonist/antagonist)” value (Ishikawa uterine cells; in words, from Table 2) was “pure estrogen antagonists”.
In the case of `C[C@]12CC[C@@H]3c4ccc(O)cc4C[C@@H](Sc4ccc(O)cc4)[C@H]3[C@@H]1CC[C@@H]2O` [Example 4, (7α,17β) 7-(4-Hydroxyphenyl)thio-estra-1,3,5(10)-triene-3,17-diol], the Uterine wet weight (rat uterus; 1 ug Cpd) was 37.9 mg, the Uterine wet weight (rat uterus; 100 ug Cpd) was 45.4 mg and the pIC50 (human estrogen receptor) was 6.52. For the same compound, the “Alkaline phosphatase activity, percent” value (Ishikawa uterine cells; 0.01 uM compound, agonist mode) was 7%, the “Alkaline phosphatase activity, percent” value (Ishikawa uterine cells; 0.1 uM compound, agonist mode) was 47% and the “Alkaline phosphatase activity, percent” value (Ishikawa uterine cells; [1]) was 6%. For the same compound, the “Alkaline phosphatase activity, percent” value (Ishikawa uterine cells; 1 uM compound, agonist mode) was 57%.
`C[C@]12CC[C@@H]3c4ccc(O)cc4C(=O)[C@@H](Sc4ccc(O)cc4)[C@H]3[C@@H]1CC[C@@H]2O` [Example 2, (7α,17β) 3,17-Dihydroxy-7-(4-hydroxyphenyl)thio-estra-1,3,5(10)-triene-6-one] gave a Uterine wet weight (rat uterus; 1 ug Cpd) of 39.4 mg, a Uterine wet weight (rat uterus; 100 ug Cpd) of 83.1 mg and a pIC50 (human estrogen receptor) of 5.60. The “Alkaline phosphatase activity, percent” value (Ishikawa uterine cells; 0.01 uM compound, agonist mode) was 7%, the “Alkaline phosphatase activity, percent” value (Ishikawa uterine cells; 0.1 uM compound, agonist mode) was 14% and the “Alkaline phosphatase activity, percent” value (Ishikawa uterine cells; [1]) was 87%. For the same compound, the “Alkaline phosphatase activity, percent” value (Ishikawa uterine cells; 1 uM compound, agonist mode) was 42%.
